# Test results reported in publication PMC8242589, “Cardiac Safety of Kinase Inhibitors – Improving Understanding and Prediction of Liabilities in Drug Discovery Using Human Stem Cell-Derived Models” (Frontiers in Cardiovascular Medicine, 2021).
# Experiments:
# [1] = test system: hSC-CMs (Cor.4U Cardiomyocytes); assay: CardioExcyte 96 impedance and EFP recording (beating rate, base impedance); format: cell-based, human; settings: for activity at 0.2 µM / activity at 2 µM / activity at 20 µM / activity at 200 µM: Homo sapiens, Cardiomyocyte, vs baseline before drug (taken as 100%)
# Procedure, shortened: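 hSC-CM monolayers (Cor.4U), cultured 4 days at 37 °C, 5% CO2, recorded spontaneously beating; impedance sampled at 1 kHz, EFP at 10 kHz. Beating rate taken as reciprocal of inter-spike interval in EFP. Each test concentration expressed as fractional change versus pre-drug baseline (100%).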
# [2] = test system: hSC-CMs (Cor.4U Cardiomyocytes); assay: Apoptosis assay (CellEvent Caspase-3/7 Green, IncuCyte ZOOM kinetics over 24 h); format: cell-based, human; settings: for activity at 0.2 µM / activity at 2 µM / activity at 20 µM / activity at 200 µM: Homo sapiens, Cardiomyocyte, normalized to time-matched vehicle control
# Procedure, shortened: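 Apoptosis was followed kinetically with a caspase-3/7 green fluorescent probe, imaging phase contrast and fluorescence every 2 h through 24 h compound exposure, after a 2 h baseline. Human stem cell-derived cardiomyocytes had been pre-cultured 4 days at 37 °C. Green object area per well was expressed relative to time-matched vehicle, with ≥3 replicates per concentration.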
# [3] = test system: hSC-CMs (Cor.4U Cardiomyocytes); assay: ATP assay (CellTiter-Glo Luminescent Cell Viability Assay); format: cell-based, human; settings: for viability at 0.2 µM / viability at 2 µM / viability at 20 µM / viability at 200 µM: Homo sapiens, Cardiomyocyte, normalized to time-matched DMSO control
# Procedure, shortened: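 Human stem-cell-derived Cor.4U cardiomyocytes (25,000–30,000/well), cultured 4 days at 37 °C, switched to serum-free BMCC medium 12 h before dosing. Cellular ATP quantified by CellTiter-Glo luminescence and normalized to time-matched DMSO controls; at least three replicates per concentration.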
# PI3K p110β = settings: ref [23]–[25] (NVP-BEZ235), [27] (LY 294002), [28] (GDC-0941), [32] (TGX-221), [33] (CAL-101), [35] (CZC24832); read-out: Target IC50 p110β; cited from earlier work
# [4] = clinical exposure in patients; ref [26] (NVP-BEZ235), [29], [30] (GDC-0941), [34] (CAL-101); cited from earlier work
structure (smiles),measurement,setting,value
"CC[C@H](Nc1ncnc2[nH]cnc12)c1nc2cccc(F)c2c(=O)n1-c1ccccc1 [CAL-101, Idelalisib]",activity at 0.2 µM,"[1]; 2h, read-out: BR",102%
same,activity at 0.2 µM,"[1]; 2h, read-out: Base Imp",93%
same,activity at 0.2 µM,"[1]; 24h, read-out: BR",99%
same,activity at 0.2 µM,"[1]; 24h, read-out: Base Imp",94%
same,activity at 2 µM,"[1]; 2h, read-out: BR",96%
same,activity at 2 µM,"[1]; 2h, read-out: Base Imp",93%
same,activity at 2 µM,"[1]; 24h, read-out: BR",94%
same,activity at 2 µM,"[1]; 24h, read-out: Base Imp",99%
same,activity at 20 µM,"[1]; 2h, read-out: BR",89%
same,activity at 20 µM,"[1]; 2h, read-out: Base Imp",96%
same,activity at 20 µM,"[1]; 24h, read-out: BR",80%
same,activity at 20 µM,"[1]; 24h, read-out: Base Imp",89%
same,activity at 200 µM,"[1]; 2h, read-out: BR",5%
same,activity at 200 µM,"[1]; 2h, read-out: Base Imp",70%
same,activity at 200 µM,"[1]; 24h, read-out: BR",39%
same,activity at 200 µM,"[1]; 24h, read-out: Base Imp",52%
same,"Effect on cardiomyocyte function in 3D surface plots (beating rate, base impedance, ATP), in words","[1]; hSC-CMs, 2 and 24 h",pronounced effects
same,Reduction of base impedance,"[1]; hSC-CMs, 2 and 24 h",more than 20%
same,Reduction of beating rate,"[1]; hSC-CMs, 2 and 24 h",more than 20%
same,activity at 0.2 µM,[2]; 2h,137%
same,activity at 0.2 µM,[2]; 24h,90%
same,activity at 2 µM,[2]; 2h,118%
same,activity at 2 µM,[2]; 24h,83%
same,activity at 20 µM,[2]; 2h,99%
same,activity at 20 µM,[2]; 24h,169%
same,activity at 200 µM,[2]; 2h,83%
same,activity at 200 µM,[2]; 24h,544%
same,"Apoptosis (caspase-3/7 activation), result in words","[2]; hSC-CMs, monitored over 24 h",induced apoptosis in hSC-CMs with a fast onset
same,Time to reach the maximum number of apoptotic cells,"[2]; hSC-CMs, monitored over 24 h",≤ 12 h
same,viability at 0.2 µM,[3]; 2h,87%
same,viability at 0.2 µM,[3]; 24h,98%
same,viability at 2 µM,[3]; 2h,87%
same,viability at 2 µM,[3]; 24h,92%
same,viability at 20 µM,[3]; 2h,92%
same,viability at 20 µM,[3]; 24h,89%
same,viability at 200 µM,[3]; 2h,98%
same,viability at 200 µM,[3]; 24h,79%
same,Decrease of ATP level,"[3]; hSC-CMs, after 24 h of incubation",20–25%
same,IC50,PI3K p110β,56 nM
same,Cmax free,[4],700 nM
